Experiments:
Assay in all cases: relative viability (nuclei count vs DMSO), 5 days (fraction); higher = more cells survive
Sulindac + Palbociclib = compound: CC1=C(CC(=O)O)c2cc(F)ccc2/C1=C\c1ccc([S+](C)[O-])cc1 [Sulindac] + CC(=O)c1c(C)c2cnc(Nc3ccc(N4CCNCC4)cn3)nc2n(C2CCCC2)c1=O [Palbociclib] (partner 0.5 µM)
Procedure, shortened: (§1)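 Lung cancer cell lines were seeded in 1536-well plates and dosed by pin tool the next day, with either a single drug or a fixed anchor-drug dose combined with five library-drug doses (not always all listed) spaced in √10 steps. Five days later, one step fixed the cells and stained their nuclei (final 0.05% Triton X-100, 1% formaldehyde, 1 ug/ml Hoechst), and nuclei were counted on 4× images. Relative viability is the nuclei count in treated wells divided by the count in vehicle wells, and each value is the median of duplicate plates.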

Sulindac + Luminespib = compound: CC1=C(CC(=O)O)c2cc(F)ccc2/C1=C\c1ccc([S+](C)[O-])cc1 [Sulindac] + CCNC(=O)c1noc(-c2cc(C(C)C)c(O)cc2O)c1-c1ccc(CN2CCOCC2)cc1 [Luminespib] (partner 0.01 µM)
Procedure, shortened: as §1

Sulindac + Olaparib = compound: CC1=C(CC(=O)O)c2cc(F)ccc2/C1=C\c1ccc([S+](C)[O-])cc1 [Sulindac] + O=C(c1cc(Cc2n[nH]c(=O)c3ccccc23)ccc1F)N1CCN(C(=O)C2CC2)CC1 [Olaparib] (partner 8 µM)
Procedure, shortened: as §1

[1] = compound: CN[C@@H]1C[C@H]2O[C@@](C)([C@@H]1OC)n1c3ccccc3c3c4c(c5c6ccccc6n2c5c31)C(=O)NC4 [Staurosporine] + O=C(CCCCCCC(=O)Nc1ccccc1)NO [Vorinostat] (partner 1 µM)
Procedure, shortened: as §1

UMC-11 showed a relative viability (Sulindac + Palbociclib; first compound 0.08 µM) of 0.304, a relative viability (Sulindac + Palbociclib; first compound 0.253 µM) of 0.333 and a relative viability (Sulindac + Palbociclib; first compound 0.8 µM) of 0.318. It also gave a relative viability (Sulindac + Palbociclib; first compound 2.53 µM) of 0.328, a relative viability (Sulindac + Palbociclib; first compound 8 µM) of 0.364 and a relative viability (Sulindac + Luminespib; first compound 0.08 µM) of 1.27. The relative viability (Sulindac + Luminespib; first compound 0.253 µM) was 1.12, the relative viability (Sulindac + Luminespib; first compound 0.8 µM) was 0.717 and the relative viability (Sulindac + Luminespib; first compound 2.53 µM) was 1.01. The relative viability (Sulindac + Luminespib; first compound 8 µM) was 1.13, the relative viability (Sulindac + Olaparib; first compound 0.08 µM) was 0.463 and the relative viability (Sulindac + Olaparib; first compound 0.253 µM) was 0.342. It also gave a relative viability (Sulindac + Olaparib; first compound 0.8 µM) of 0.42, a relative viability (Sulindac + Olaparib; first compound 2.53 µM) of 0.339 and a relative viability (Sulindac + Olaparib; first compound 8 µM) of 0.332. The relative viability ([1]; first compound 0.005 µM) was 0.343, the relative viability ([1]; first compound 0.01581 µM) was 0.136 and the relative viability ([1]; first compound 0.05 µM) was 0.0975. For the same cell line, the relative viability ([1]; first compound 0.1581 µM) was 0.0825 and the relative viability ([1]; first compound 0.5 µM) was 0.066.

From the supplement of paper PMC10307832
